Test results from patent publication US11160820B2 (Dalian Minzu University, priority 2019, dated 2021).
Where two headings read alike, the source gives them in different places.

Key:
[1] = tested on: mice with LPS/D-GalN-induced acute hepatic failure; conditions: for Catalase (CAT) / Glutathione (GSH) / Malondialdehyde (MDA) / Superoxide dismutase (SOD): liver tissue homogenate
Procedure: (§1) The mice of the blank group and the model group were given the equivalent dose of normal saline by gavage for three consecutive days before the establishment of the model. […] Upon the third day of gavage, the mice of the blank group were given the equivalent dose of normal saline by intraperitoneal injection, and the mice of the model group and the groups with low, medium and high doses were given the LPS and the D-GalN by intraperitoneal injection. After 6 hours of modeling, blood and liver tissues were taken. Whole blood was centrifuged (4000 rmp×10 min), and then the supernatant was taken. The liver tissue was washed with normal saline, one-fourth of the large liver lobe was stored in a formalin solution, and the rest of the liver was stored in a refrigerator of −80° C.
The liver tissue homogenate was detected with glutathione (GSH), superoxide dismutase (SOD), malondialdehyde (MDA) and catalase (CAT) kits. The experiment followed the instructions of kits available from Nanjing Jiancheng Bioengineering Institute.
(§2) All experimental data were analyzed by a Graphpad Prism 7.0 software. Statistical analysis between the two groups was conducted by a t test. Variance analysis was conducted by Ordinary one-way ANOVA. A Multiple Comparison method was used for conducting pairwise comparison among multiple groups. When the P value was <0.05, it was considered that there was statistical difference among the data of each group.

[2] = tested on: mice with LPS/D-GalN-induced acute hepatic failure; conditions: for Aspartate transferase (AST) / Alanine transferase (ALT): serum, 6 hours after modeling
Procedure: as §1
Plasma was taken, and determined with alanine transaminase (GPT) and aspartate transferase (GOT) kits. The experiment followed the instructions of the kits available from Nanjing Jiancheng Bioengineering Institute.
as §2

[3] = tested on: mice with LPS/D-GalN-induced acute hepatic failure; conditions: treatment group administrated with the AFG
Procedure: as §1

[4] = tested on: mice with LPS/D-GalN-induced acute hepatic failure
Procedure: as §1
The in vitro liver tissue was spread on a white paperboard, observed for the appearance of the liver tissue, and photographed.

[5] = tested on: mice with LPS/D-GalN-induced acute hepatic failure; remark: listed apart in the source
Procedure: as §1
The liver tissue was soaked in a 10% formalin solution, washed under running water, dehydrated with ethanol solutions of low to high concentrations, xylene solution, embedded with paraffin, sectioned, stained with H&E, and observed under a microscope for the pathological morphology of the liver tissue.

[6] = tested on: mice with acute hepatitis/hepatic failure caused by LPS/D-GalN; conditions: through a TLR4 signaling pathway; International Immunopharmacology, 2018, 61:266-276; cited from earlier work
[7] = groups with medium and high doses of the AFG, P<0.05
[8] = AFG 25 mg/kg by gavage for 3 days before LPS/D-GalN
[9] = AFG 50 mg/kg by gavage for 3 days before LPS/D-GalN
[10] = AFG 100 mg/kg by gavage for 3 days before LPS/D-GalN
[11] = group with the high dose of the AFG, P<0.01

N=C(N)NCCC[C@H](NCC(=O)[C@@H](O)[C@H](O[C@H]1O[C@H](CO)[C@@H](O)[C@H](O)[C@H]1O)[C@H](O)CO)C(=O)O [AFG, argininyl fructosy glucose]
level of CAT compared with the model group [1, 7]: increased significantly | level of MDA compared with the model group [1, 7]: increased significantly | level of SOD compared with the model group [1, 7]: increased significantly | Catalase (CAT) [1, 8]: 34.01 ± 2.75 | Glutathione (GSH) [1, 8]: 51.91 ± 3.29 | Malondialdehyde (MDA) [1, 8]: 133.37 ± 5.38 | Superoxide dismutase (SOD) [1, 8]: 11.48 ± 1.77 | Catalase (CAT) [1, 9]: 51.66 ± 6.19 | Glutathione (GSH) [1, 9]: 67.94 ± 3.58 | Malondialdehyde (MDA) [1, 9]: 104.00 ± 3.13 | Superoxide dismutase (SOD) [1, 9]: 20.98 ± 3.72 | Catalase (CAT) [1, 10]: 61.44 ± 8.96 | Glutathione (GSH) [1, 10]: 136.00 ± 6.90 | Malondialdehyde (MDA) [1, 10]: 94.44 ± 6.87 | Superoxide dismutase (SOD) [1, 10]: 26.54 ± 2.93 | improvement of acute hepatic failure caused by the combination of LPS and D-GalN ([2]; AFG in the range from 50 mg/kg to 100 mg/kg, overall conclusion): can significantly improve the acute hepatic failure | level of ALT in the serum compared with the model group [2, 11]: significantly decreased | level of AST in the serum compared with the model group [2, 11]: significantly decreased | Aspartate transferase (AST) ([2]; AFG 25 mg/kg by gavage for 3 days before LPS 40 μg/kg + D-GalN 700 mg/kg i.p.): 260.52 ± 5.58 | Alanine transferase (ALT) [2, 8]: 187.45 ± 3.48 | Alanine transferase (ALT) [2, 9]: 116.13 ± 3.37 | Aspartate transferase (AST) [2, 9]: 146.43 ± 0.93 | Alanine transferase (ALT) [2, 10]: 71.90 ± 5.97 | Aspartate transferase (AST) [2, 10]: 80.48 ± 5.09 | number of apoptotic cells (TUNEL) compared with the model group [3]: significantly reduced | appearance of the liver, protection effect ([4]; group protected with the high dose): the protection effect was obvious | appearance of the liver ([4]; with the increase of the protection dose): gradually tended to be of a normal state | H&E stained liver sections compared with the model group ([5]; group with the high dose of the AFG): the cells had relatively complete structures | H&E stained liver sections compared with the model group ([5]; group with the medium dose of the AFG): cellular necrosis was significantly improved

CC(C)=CCC[C@](C)(O[C@@H]1O[C@H](CO)[C@@H](O)[C@H](O)[C@H]1O)[C@H]1CC[C@]2(C)[C@@H]1[C@H](O)C[C@@H]1[C@@]3(C)CC[C@H](O)C(C)(C)[C@@H]3[C@@H](O[C@@H]3O[C@H](CO)[C@@H](O)[C@H](O)[C@H]3O)C[C@]12C [ginsenoside Rg1]
protective role on mice with acute hepatitis/hepatic failure caused by LPS/D-GalN [6]: plays a protective role
